{
  "source": "patent EP1561465A2",
  "about": "“Methods of use of fluoroquinolone compounds against bacteria” (LG Life Sciences, Ltd., priority 1999, dated 2001)",
  "format_in_all_cases": "cell-based",
  "key": {"Staphylococcus aureus": {"system": "Staphylococcus aureus", "experiment": "MIC by agar macrodilution (NCCLS), 373 Gram positive isolates, Athens 1998", "details": "Methicillin-susceptible Staphylococcus aureus (n = 85)"}, "Streptococcus pneumoniae [1]": {"system": "Streptococcus pneumoniae", "experiment": "MIC by agar dilution (NCCLS), 411 isolates Buenos Aires 1998-99", "details": "Streptococcus pneumoniae, S. pneumoniae, read-out: MIC90"}, "Streptococcus pneumoniae [2]": {"system": "Streptococcus pneumoniae", "experiment": "MIC by E-test (broth microdilution for gemifloxacin), 107 pneumococcal carrier isolates, Athens 1998", "details": "Streptococcus pneumoniae, E-test; for MIC50: read-out: MIC50; for MIC90: read-out: MIC90", "procedure": "Susceptibility testing was performed by agar dilution or epsilometer method (E-test), as recommended by the NCCLS. […] The susceptibility profiles of the strains were assessed using the Epsilometer method (E-test). The isolates were subdivided into two groups according to their penicillin susceptibility patterns (penicillin-susceptible and penicillin-intermediate."}, "[3]": {"details": "Penicillin-intermediate S. pneumoniae (n = 24)"}, "[4]": {"details": "Penicillin-susceptible S. pneumoniae (n = 107)"}},
  "note": "Read-outs that look alike come from different tables or passages of the source.",
  "data": [
    {"smiles": "CC[C@H]1OC(=O)[C@H](C)[C@@H](O[C@H]2C[C@@](C)(OC)[C@@H](O)[C@H](C)O2)[C@H](C)[C@@H](O[C@@H]2O[C@H](C)C[C@H](N(C)C)[C@H]2O)[C@](C)(O)C[C@@H](C)CN(C)[C@H](C)[C@@H](O)[C@]1(C)O", "note": "[Azithromycin, azithromycin]", "values": [
      {"measurement": "MIC50", "setting": "Staphylococcus aureus; read-out: MIC50", "value": 1, "unit": "µg/mL"},
      {"measurement": "MIC90", "setting": "Staphylococcus aureus; read-out: MIC90", "value": 2, "unit": "µg/mL"},
      {"measurement": "MIC90", "setting": "Streptococcus pneumoniae [1]; Penicillin intermediate (n = 17)", "value": 1, "unit": "µg/mL"},
      {"measurement": "MIC90", "setting": "Streptococcus pneumoniae [1]; Penicillin resistant (n = 4)", "value": 0.06, "unit": "µg/mL"},
      {"measurement": "MIC90", "setting": "Streptococcus pneumoniae [1]; Penicillin susceptible (n = 69)", "value": 0.06, "unit": "µg/mL"},
      {"measurement": "MIC50", "setting": "Streptococcus pneumoniae [2]; [3]", "value": 1, "unit": "µg/mL"},
      {"measurement": "MIC90", "setting": "Streptococcus pneumoniae [2]; [3]", "value": "≥ 256", "unit": "µg/mL"},
      {"measurement": "MIC50", "setting": "Streptococcus pneumoniae [2]; [4]", "value": 0.75, "unit": "µg/mL"},
      {"measurement": "MIC90", "setting": "Streptococcus pneumoniae [2]; [4]", "value": 3, "unit": "µg/mL"}
    ]}
  ]
}
